# Patent publication US20140128352A1, “COMPOUNDS AND METHODS FOR MODULATING MITOCHONDRIAL METABOLISM AND REACTIVE OXYGEN SPECIES PRODUCTION” (Buck Institute for Research on Aging, priority 2012, published 2014)
# Like-named read-outs stand apart in the source and are kept apart here.
# Legend:
# [1] = system: ubiquinone binding site of complex I (IQ); test: High-throughput screen: ROS production from ubiquinone binding site of complex I (IQ), isolated skeletal muscle mitochondria; assay type: biochemical, rat; settings: for % Reduction in ROS production (IQ): Table 2, 5 mM succinate, compounds 2.5 μM, percent change from DMSO, positive control −100%; for IQ: percent change in ROS from DMSO controls
# Method: (§1) Skeletal muscle mitochondria were isolated from 5-8 week old female Wistar rats (Harlan Laboratories). Minced muscle was homogenized in buffer containing bacterial protease Type VIII prior to differential centrifugation to separate mitochondria from other tissue components. Unless otherwise stated, freshly isolated muscle mitochondria were assayed in buffer containing 120 mM KCl, 5 mM HEPES, 1 mM EGTA, 0.3% (w/v) bovine serum albumin. Where indicated, CaCl2 was added to yield a final free concentration of 250 nM calcium at pH 7.0 at 37° C.
# (§2) Compounds (10 mM in DMSO) were randomly selected from a library of 24,000 compounds obtained from ChemBridge and curated by the lab of Robert Hughes at the Buck Institute. Master screening plates were prepared using a Biomek FX liquid handling workstation (Beckman) to transfer 1 μL of each compound into individual wells on 96-well storage plates (80 compounds per plate). Master plates were sealed with foil and stored at −80° C. Just prior to use, plates were brought to room temperature and diluted 300-fold with standard buffer (13.3X=33.3 μM). To monitor the performance of each assay throughout screening and to provide intra-plate normalization reference points, DMSO negative controls and known mitochondrial inhibitor positive controls were included on each Master compound plate.
# (§3) Total amounts of superoxide and H2O2 production were determined fluorometrically as H2O2, without distinguishing between them, in the presence of exogenous superoxide dismutase (25 units/mL final), horseradish peroxidase (1 unit/mL final), and Amplex UltraRed (25 μM final) as described (Affourtit, C. et al. (2012) Measurement of proton leak and electron leak in isolated mitochondria. Methods Mol. Biol. 810: 165-82). Just prior to use, a bulk 3.3X solution was made in standard buffer and distributed into a 2 mL deep well 96-well transfer plate.
# To assess the effects of a compound on ROS production from the ubiquinone binding site of complex I (IQ), Start Solution containing 5 mM succinate was distributed into standard 96-well transfer plates. A Biomek FX workstation was programmed to dispense solutions into black 96-well assay plates. Solutions were dispensed to all assay plates in the following order: ROS Detection solution described in Example 3, Mitochondria solution described in Example 1 to a final concentration of 0.1 mg/ml, and Compound dilutions described in Example 2. Duplicate assay plates were made and each was initiated by the addition of 3.3X Start solution containing 5 mM succinate. Plates were incubated in the dark at room temperature for 30-40 minutes before acquiring endpoint fluorescence using a Victor 3V plate reader (Perkin Elmer) equipped with 550/590 nm excitation/emission filters.
# The fluorescence values in each well were scaled as the percent change from the intra-plate DMSO controls with the appropriate inhibitor positive controls defined as −100%. Following initial scaling, intra-plate normalized values were subjected to Tukey's two-way median polish to remove row and column dependent positional effects (Malo et al, 2006).
# [2] = target: T1, flavin binding site of complex I (IF) (Rattus norvegicus, UniProt Q5XIH3); test: High-throughput screen: ROS production from flavin binding site of complex I (IF); assay type: biochemical; settings: for inhibition at 2.5 µM: Table 7, read-out: IF; for inhibition at 2.5 µM / IF: percent change in ROS from DMSO controls
# T1 construct: freshly isolated muscle mitochondria were assayed; from tissue; host or cells: rat skeletal muscle mitochondria (Wistar, Harlan Laboratories)
# [3] = target: T2, outer ubiquinone binding site of complex III (IIIQO) (Rattus norvegicus, UniProt P00159+P20788); test: High-throughput screen: ROS production from outer ubiquinone binding site of complex III (IIIQO); assay type: biochemical; settings: for inhibition at 2.5 µM / IIIQO: percent change in ROS from DMSO controls; for IIIQO: Table 8
# T2 construct: freshly isolated muscle mitochondria were assayed; from tissue; host or cells: rat skeletal muscle mitochondria (Wistar, Harlan Laboratories)
# Method: as §1, §2, §3
# To assess the effects of a compound on ROS production from the outer ubiquinone binding site of complex III (IIIQO), Start Solution containing 5 mM succinate, 4 μM rotenone and 2.5 μM antimycin A was distributed into standard 96-well transfer plates. A Biomek FX workstation was programmed to dispense solutions into black 96-well assay plates. Solutions were dispensed to all assay plates in the following order: ROS Detection solution described in Example 3, Mitochondria solution described in Example 1 to a final concentration of 0.1 mg/ml, and Compound dilutions described in Example 2. Duplicate assay plates were made and each was initiated by the addition of 3.3X Start solution containing 5 mM succinate, 4 μM rotenone and 2.5 μM antimycin A. Plates were incubated in the dark at room temperature for 30-40 minutes before acquiring endpoint fluorescence using a Victor 3V plate reader (Perkin Elmer) equipped with 550/590 nm excitation/emission filters.
# (§4) The fluorescence values in each well were scaled as the percent change from the intra-plate DMSO controls with the appropriate inhibitor positive controls defined as −100%. Following initial scaling, intra-plate normalized values were subjected to Tukey's two-way median polish to remove row and column dependent positional effects (Malo et al., 2006).
# [4] = target: T3, succinate dehydrogenase/complex II (SDH) (Rattus norvegicus, UniProt P21913+Q641Z9+Q6PCT8+Q920L2); test: High-throughput screen: ROS production from succinate dehydrogenase/complex II (SDH); assay type: biochemical; settings: percent change in ROS from DMSO controls; for inhibition at 2.5 µM: Table 7
# T3 construct: freshly isolated muscle mitochondria were assayed; from tissue; host or cells: rat skeletal muscle mitochondria (Wistar, Harlan Laboratories)
# Method: as §1
# Just prior to use, plates were brought to room temperature and diluted 300-fold with standard buffer (13.3X=33.3 μM). To monitor the performance of each assay throughout screening and to provide intra-plate normalization reference points, DMSO negative controls and known mitochondrial inhibitor positive controls were included on each Master compound plate.
# as §3
# To assess the effects of a compound on ROS production from succinate dehydrogenase/complex II (SDH), Start Solution containing 15 μM palmitoyl carnitine, 2.5 μM antimycin A and 2 μM myxothiazol was distributed into standard 96-well transfer plates. A Biomek FX workstation was programmed to dispense solutions into black 96-well assay plates. Solutions were dispensed to all assay plates in the following order: ROS Detection solution described in Example 3, Mitochondria solution described in Example 1 to a final concentration of 0.3 mg/ml, and Compound dilutions described in Example 2. Duplicate assay plates were made and each was initiated by the addition of 3.3X Start solution containing 15 μM palmitoyl carnitine, 2.5 μM antimycin A and 2 μM myxothiazol. Plates were incubated in the dark at room temperature for 30-40 minutes before acquiring endpoint fluorescence using a Victor 3V plate reader (Perkin Elmer) equipped with 550/590 nm excitation/emission filters.
# as §4
# [5] = target: T4, glycerol-3-phosphate dehydrogenase (GPDH) (Rattus norvegicus, UniProt P35571); test: High-throughput screen: ROS production from glycerol-3-phosphate dehydrogenase (GPDH); assay type: biochemical; set-up: inhibition: dose or concentration left out as unconfirmed; settings: for inhibition: Table 7; for inhibition / GPDH: percent change in ROS from DMSO controls
# T4 construct: The activity of GPDH in intact mitochondria (0.3 mg/mL) was measured; from tissue; host or cells: rat skeletal muscle mitochondria (Wistar, Harlan Laboratories)
# T4 sequence (P35571 43-727): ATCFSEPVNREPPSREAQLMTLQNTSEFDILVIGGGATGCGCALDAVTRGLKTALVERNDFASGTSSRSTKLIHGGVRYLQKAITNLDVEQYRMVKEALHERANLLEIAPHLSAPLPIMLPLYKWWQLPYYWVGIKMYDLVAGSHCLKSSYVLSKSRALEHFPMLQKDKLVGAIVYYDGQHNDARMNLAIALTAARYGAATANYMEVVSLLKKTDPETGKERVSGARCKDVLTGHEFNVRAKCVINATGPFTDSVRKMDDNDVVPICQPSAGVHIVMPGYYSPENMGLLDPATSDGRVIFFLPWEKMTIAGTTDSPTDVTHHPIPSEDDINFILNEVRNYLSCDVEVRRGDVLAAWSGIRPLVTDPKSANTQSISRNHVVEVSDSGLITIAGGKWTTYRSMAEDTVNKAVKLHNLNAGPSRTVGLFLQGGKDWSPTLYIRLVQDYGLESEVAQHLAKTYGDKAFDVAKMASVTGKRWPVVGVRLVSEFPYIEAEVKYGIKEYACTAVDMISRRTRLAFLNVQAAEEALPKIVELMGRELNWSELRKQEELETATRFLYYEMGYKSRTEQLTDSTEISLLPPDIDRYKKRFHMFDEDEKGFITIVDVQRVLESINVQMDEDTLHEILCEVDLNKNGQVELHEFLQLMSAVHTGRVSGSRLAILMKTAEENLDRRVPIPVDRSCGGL
# Method: as §1, §2, §3
# To assess the effects of a compound on ROS production from glycerol-3-phosphate dehydrogenase (GPDH), Start Solution containing 25 mM glycerol phosphate, 4 μM rotenone, 2.5 μM antimycin A, 1 mM malonate, 2 μM myxothiazol was distributed into standard 96-well transfer plates. A Biomek FX workstation was programmed to dispense solutions into black 96-well assay plates. Solutions were dispensed to all assay plates in the following order: ROS Detection solution described in Example 3, Mitochondria solution described in Example 1 to a final concentration of 0.2 mg/ml, and Compound dilutions described in Example 2. Duplicate assay plates were made and each was initiated by the addition of 3.3X Start solution containing 25 mM glycerol phosphate, 4 μM rotenone, 2.5 μM antimycin A, 1 mM malonate, 2 μM myxothiazol. Plates were incubated in the dark at room temperature for 30-40 minutes before acquiring endpoint fluorescence using a Victor 3V plate reader (Perkin Elmer) equipped with 550/590 nm excitation/emission filters.
# The fluorescence values in each well were scaled as the percent change from the intra-plate DMSO controls. […] Following initial scaling, intra-plate normalized values were subjected to Tukey's two-way median polish to remove row and column dependent positional effects (Malo et al., 2006).
# [6] = system: mitochondrial membrane potential (ΔΨm); test: Membrane potential (ΔΨm) counterscreen with TMRM; settings: malate, nigericin
# T1 sequence (Q5XIH3 21-464 limits assumed, one chain of several): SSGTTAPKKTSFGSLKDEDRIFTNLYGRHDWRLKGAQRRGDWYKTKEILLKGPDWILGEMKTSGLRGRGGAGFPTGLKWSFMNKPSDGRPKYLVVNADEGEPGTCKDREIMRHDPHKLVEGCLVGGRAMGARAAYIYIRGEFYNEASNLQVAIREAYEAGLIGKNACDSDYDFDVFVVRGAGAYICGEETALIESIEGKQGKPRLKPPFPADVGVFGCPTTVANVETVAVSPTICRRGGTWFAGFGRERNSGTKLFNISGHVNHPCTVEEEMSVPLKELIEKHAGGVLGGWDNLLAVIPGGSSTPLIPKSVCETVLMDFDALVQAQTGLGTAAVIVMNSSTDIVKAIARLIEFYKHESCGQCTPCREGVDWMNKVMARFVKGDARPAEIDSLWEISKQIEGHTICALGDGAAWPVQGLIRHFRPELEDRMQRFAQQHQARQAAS
# T3 sequence (Q920L2 35-656): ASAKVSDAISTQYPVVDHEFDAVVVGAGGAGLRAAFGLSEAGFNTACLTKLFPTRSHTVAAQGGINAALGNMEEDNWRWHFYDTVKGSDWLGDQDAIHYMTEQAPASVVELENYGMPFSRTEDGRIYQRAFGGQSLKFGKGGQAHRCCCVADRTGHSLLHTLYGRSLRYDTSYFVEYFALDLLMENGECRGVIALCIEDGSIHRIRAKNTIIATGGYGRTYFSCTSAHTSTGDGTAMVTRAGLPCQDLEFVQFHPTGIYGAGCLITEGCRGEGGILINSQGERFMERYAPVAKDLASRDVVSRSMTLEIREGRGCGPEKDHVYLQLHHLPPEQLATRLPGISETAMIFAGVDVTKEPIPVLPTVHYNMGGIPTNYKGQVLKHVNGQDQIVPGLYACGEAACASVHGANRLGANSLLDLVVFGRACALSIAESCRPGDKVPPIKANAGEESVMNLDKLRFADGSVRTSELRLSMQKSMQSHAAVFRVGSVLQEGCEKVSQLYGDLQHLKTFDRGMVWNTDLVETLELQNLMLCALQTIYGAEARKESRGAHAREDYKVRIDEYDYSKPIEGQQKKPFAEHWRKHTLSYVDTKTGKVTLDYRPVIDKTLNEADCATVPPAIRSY
# T3 sequence (P21913 31-282): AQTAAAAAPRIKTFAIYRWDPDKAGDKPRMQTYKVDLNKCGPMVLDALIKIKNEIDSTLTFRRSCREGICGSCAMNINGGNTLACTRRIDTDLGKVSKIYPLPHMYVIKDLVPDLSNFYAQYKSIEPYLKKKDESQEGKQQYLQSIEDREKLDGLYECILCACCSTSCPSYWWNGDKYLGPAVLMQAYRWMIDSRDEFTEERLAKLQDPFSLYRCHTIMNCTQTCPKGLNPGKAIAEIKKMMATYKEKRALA
# T3 sequence (Q641Z9 30-169 limits assumed): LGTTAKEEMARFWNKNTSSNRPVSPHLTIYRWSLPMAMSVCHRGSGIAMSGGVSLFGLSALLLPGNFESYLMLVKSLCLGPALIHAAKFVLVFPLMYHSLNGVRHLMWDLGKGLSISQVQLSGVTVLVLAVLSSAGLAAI
# T3 sequence (Q6PCT8 57-159): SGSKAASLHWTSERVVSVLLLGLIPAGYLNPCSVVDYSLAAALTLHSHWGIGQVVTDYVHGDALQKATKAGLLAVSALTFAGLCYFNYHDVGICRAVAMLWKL
Compound,"inhibition at 2.5 µM ([3]; Table 7, read-out: IIIQO)",IIIQO [3],"inhibition at 2.5 µM ([3]; Table 9, read-out: IIIQo)",inhibition at 2.5 µM [4],SDH ([4]; Table 8),SDH ([4]; Table 9),inhibition [5],GPDH ([5]; Table 8),GPDH ([5]; Table 9),% Reduction in ROS production (IQ) [1],IQ ([1]; Table 7),IQ ([1]; Table 8),IQ ([1]; Table 9),inhibition at 2.5 µM [2],IF ([2]; Table 8),IF ([2]; Table 9),"ΔΨm ([6]; Table 8, glutamate)","ΔΨm ([6]; Table 9, glutamate)",also measured
CC(C)(C)NS(=O)(=O)c1ccc2c(c1)C(=O)c1ccccc1C2=O [Compound 1],-1%,1.0,-1%,8.2%,−8.2,−8.2,-4.1%,4.1,4.1,−60.6%,−60.6,−60.6,−60.6,-10%,10.0,10.0,−1.5,−1.5,
CCSC1=C(C#N)C2(CCCC2)C(C#N)C(=O)N1 (stereo not shown) [Compound 2],-1.9%,1.9,-1.9%,-2.6%,2.6,2.6,0.1%,−0.1,−0.1,−52.5%,−52.5,−52.5,−52.5,7%,−7.0,−7.0,−3.4,−3.4,
CC(C)(C)C1=NN(c2c(Cl)cc(Cl)cc2Cl)C(=O)C1 [Compound 3],-1%,1.0,-1%,6.8%,−6.8,−6.8,0.1%,−0.1,−0.1,−52.4%,−52.4,−52.4,−52.4,-0.5%,0.5,0.5,1.2,1.2,
CC(C)Cc1ccc(C(C)C(=O)Nc2ccccc2O)cc1 (stereo not shown) [Compound 5],3.6%,−3.6,3.6%,-2.3%,2.3,2.3,-0.7%,0.7,0.7,−40.0%,−40.0,−40.0,−40.0,-0.2%,0.2,0.2,−3.5,−3.5,
Cc1ccc(NS(=O)(=O)c2ccc(C3CCCCC3)cc2)cc1 [Compound 6],3.4%,−3.4,3.4%,1.1%,−1.1,−1.1,2.3%,−2.3,−2.3,−38.6%,−38.6,−38.6,−38.6,-3.6%,3.6,3.6,0.0,0.0,

# Continued, in another order:
"inhibition at 2.5 µM ([3]; Table 7, read-out: IIIQO)",IIIQO [3],"inhibition at 2.5 µM ([3]; Table 9, read-out: IIIQo)",inhibition at 2.5 µM [4],SDH ([4]; Table 8),SDH ([4]; Table 9),inhibition [5],GPDH ([5]; Table 8),GPDH ([5]; Table 9),Compound,% Reduction in ROS production (IQ) [1],IQ ([1]; Table 7),IQ ([1]; Table 8),IQ ([1]; Table 9),inhibition at 2.5 µM [2],IF ([2]; Table 8),IF ([2]; Table 9),"ΔΨm ([6]; Table 8, glutamate)","ΔΨm ([6]; Table 9, glutamate)",also measured
-9.2%,9.2,-9.2%,-2.1%,2.1,2.1,-5.6%,5.6,5.6,C=CCSc1nc(N)c(C#N)c(CC)c1C#N [Compound 7],−36.5%,−36.5,−36.5,−36.5,-1.3%,1.3,1.3,−0.5,−0.5,
-7.6%,7.6,-7.6%,-0.4%,0.4,0.4,1.8%,−1.8,−1.8,O=S(=O)(Nc1ccc(Br)cc1)c1ccc(C2CCCCC2)cc1 [Compound 8],−36.3%,−36.3,−36.3,−36.3,4.2%,−4.2,−4.2,−0.3,−0.3,
2.7%,−2.7,2.7%,-0.3%,0.3,0.3,-1%,1.0,1.0,Cc1ccccc1NS(=O)(=O)c1ccc(C2CCCCC2)cc1 [Compound 9],−31.2%,−31.2,−31.2,−31.2,-0.4%,0.4,0.4,−0.1,−0.1,
2.8%,−2.8,2.8%,-1%,1.0,1.0,4.3%,−4.3,−4.3,CC(=O)Nc1ccc(S(=O)(=O)Nc2cccc(C)c2)cc1 [Compound 10],−24.1%,−24.1,−24.1,−24.1,-3.3%,3.3,3.3,−0.2,−0.2,
1.9%,−1.9,1.9%,0.2%,−0.2,−0.2,5%,−5.0,−5.0,COc1ccc(NS(=O)(=O)c2cccc(C(=O)Nc3ccc(C)cc3)c2)cc1 [Compound 11],−23.8%,−23.8,−23.8,−23.8,-3.3%,3.3,3.3,−0.4,−0.4,
-0.2%,0.2,-0.2%,0.1%,−0.1,−0.1,-0.5%,0.5,0.5,Cc1ccccc1NS(=O)(=O)c1ccc(-c2ccc(S(=O)(=O)Nc3ccccc3C)cc2)cc1 [Compound 12],−20.7%,−20.7,−20.7,−20.7,1.7%,−1.7,−1.7,−0.5,−0.5,
5.7%,−5.7,5.7%,,,,13.4%,−13.4,−13.4,CCN1CCN(C/C=C/c2ccc(N(C)C)cc2)CC1 [Compound 48],,−2.9,−2.9,−2.9,6.5%,−6.5,−6.5,0.0,0.0,"inhibition at 2.5 µM ([5]; Table 6, 25 mM glycerol phosphate, rotenone, antimycin A, malonate, myxothiazol, compounds 2.5 μM, scaled to IQ positive controls, read-out: % Reduction in ROS Production (GPDH)): 13.4%"
,−19,,,,,,−1,,CCCCN(Cc1ccccc1)Cc1cc(OC)c(OC)cc1[N+](=O)[O-] [Compound 79],,,0,,,−17,,1,,"% Reduction in ROS production (IF) ([2]; Table 3, 5 mM glutamate, 5 mM malate, 4 μM rotenone, compounds 2.5 μM, percent change from DMSO, positive control −100%): −17%; % Reduction in ROS production (IIIQO) ([3]; Table 4, 5 mM succinate, 4 μM rotenone, 2.5 μM antimycin A, compounds 2.5 μM, percent change from DMSO): −19%"
